# Measured values: US8450313B2, “2,3-diaryl- or heteroaryl-substituted 1,1,1-trifluoro-2-hydroxypropyl compounds” (Hoffmann-La Roche Inc., priority 2009, dated 2013)
# Target: T1, full length human recombinant glucocorticoid receptor (Homo sapiens, UniProt P04150)
# T1 construct: It contains some partially purified full length human recombinant glucocorticoid receptor; purchased Panvera/Invitrogen PV4302
# T1 sequence (P04150 1-777): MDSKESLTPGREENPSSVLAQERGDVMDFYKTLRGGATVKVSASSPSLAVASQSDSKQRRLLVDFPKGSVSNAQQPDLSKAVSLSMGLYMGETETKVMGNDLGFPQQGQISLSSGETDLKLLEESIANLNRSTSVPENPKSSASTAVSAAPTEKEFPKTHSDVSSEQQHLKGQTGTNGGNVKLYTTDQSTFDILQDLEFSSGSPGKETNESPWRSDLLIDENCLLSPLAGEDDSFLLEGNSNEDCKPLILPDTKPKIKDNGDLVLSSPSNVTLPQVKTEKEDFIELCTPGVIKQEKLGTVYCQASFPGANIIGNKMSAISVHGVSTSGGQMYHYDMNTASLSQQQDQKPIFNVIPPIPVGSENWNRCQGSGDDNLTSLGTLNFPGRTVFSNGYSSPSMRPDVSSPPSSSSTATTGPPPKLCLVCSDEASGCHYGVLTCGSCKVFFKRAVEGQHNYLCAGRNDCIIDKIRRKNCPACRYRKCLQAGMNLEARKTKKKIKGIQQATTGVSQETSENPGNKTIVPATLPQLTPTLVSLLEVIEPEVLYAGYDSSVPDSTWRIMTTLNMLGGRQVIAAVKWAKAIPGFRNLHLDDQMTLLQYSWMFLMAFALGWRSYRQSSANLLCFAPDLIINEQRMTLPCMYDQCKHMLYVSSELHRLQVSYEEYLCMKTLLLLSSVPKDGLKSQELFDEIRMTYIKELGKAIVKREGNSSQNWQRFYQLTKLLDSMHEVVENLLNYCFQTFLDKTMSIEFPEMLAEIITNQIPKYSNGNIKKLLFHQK
# Experiment: Glucocorticoid Receptor Binding Assay (Glucocorticoid Receptor Competitor Assay far red kit, fluorescence polarization)
# Conditions: competition with fluorescent GR ligand Fluormone GS Far Red, 3 hours at 22° C., pH 7.4; Ki calculated from IC50 by Cheng-Prusoff
# Method: Glucocorticoid Receptor Binding Assay
# The ability of the substances to bind to the glucocorticoid receptor was determined with the help of a commercial Glucocorticoid Receptor Competitor Assay far red kit provided by Panvera/Invitrogen (PV4302). This kit is used as provided by the supplier. It contains some partially purified full length human recombinant glucocorticoid receptor, a coactivator related GR stabilizing peptide, a tight-binding fluorescent GR ligand Fluormone™ GS Far Red as labeled tracer and a screening buffer. All reagents are prepared and the assay is run according to the recommendations of the kit manufacturer.
# Briefly, the GR stabilizing peptide and the human recombinant glucocorticoid receptor are both diluted with the screening buffer (pH 7.4) and are gently mixed (no vortexing) just before the assay and kept on ice until use. The fluorescent-labeled ligand is also diluted with the screening buffer just before the assay and kept on ice until use. The substances to test are pre-diluted in pure DMSO then some water is added to get an intermediate 4.2% DMSO stock solution. Ten microliter of the intermediate stock solution is gently mixed with 5 μA of diluted fluorescent-labeled ligand and 5 μl of diluted human recombinant glucocorticoid receptor in a 384-well plate (low volume, ultraclear, glass plate from Greiner ref 788896). The plate is centrifuged, sealed and incubated for 3 hours at 22° C. in the dark. The polarized fluorescence is measured with a Zeiss-HTS reader or any equivalent equipment (610-660 nm).
# All compounds were tested to determine IC50 in a serial dilution experiment. The concentration at which 50% inhibition of the fluorescent GR ligand Fluormone™ GS Far Red is obtained (the IC50) is determined after fitting with a sigmoidal dose-response model of a plot of the logarithm of the concentration versus percent inhibition measured for the different concentrations. Ki's were calculated from IC50 based on Cheng-Prusoff equation (Cheng, Y, Prusoff, W H (1973) Biochem Pharmacol 22, 3099-3108): Ki=IC50/[1+D/Kd] wherein D is the concentration of the fluorescent ligand and Kd is the binding constant for the fluorescent ligand binding to the receptor under the conditions used in the competition experiment.
row,Structure (SMILES),Ki [nM]
1,"COC(=O)c1ccc(-c2ccc([C@H](C)[C@](O)(c3ccc4c(c3)N(C)C(=O)CO4)C(F)(F)F)c(Cl)c2)cc1F (racemic) [Example 25, 3′-Chloro-3-fluoro-4′-[3,3,3-trifluoro-2-hydroxy-1-methyl-2-(4-methyl-3-oxo-3,4-dihydro-2H-benzo[1,4]oxazin-6-yl)-propyl]-biphenyl-4-carboxylic acid methyl ester]",2.8
2,"C[C@H](c1ccc(Oc2ccc(F)c(C(=O)O)c2)cc1Cl)[C@@](O)(c1ccc2c(c1)N(C)C(=O)CO2)C(F)(F)F (racemic) [Example 56, 5-{3-Chloro-4-[3,3,3-trifluoro-2-hydroxy-1-methyl-2-(4-methyl-3-oxo-3,4-dihydro-2H-benzo[1,4]oxazin-6-yl)-propyl]-phenoxy}-2-fluoro-benzoic acid]",0.3
3,"C[C@H](c1ccc(Oc2ccc(Cl)c(C(=O)O)c2)cc1Cl)[C@@](O)(c1ccc2c(c1)N(C)C(=O)CO2)C(F)(F)F (racemic) [Example 58, 2-Chloro-5-{3-chloro-4-[3,3,3-trifluoro-2-hydroxy-1-methyl-2-(4-methyl-3-oxo-3,4-dihydro-2H-benzo[1,4]oxazin-6-yl)-propyl]-phenoxy}-benzoic acid]",0.3
4,"C[C@H](c1ccc(Oc2ccc(C(=O)O)c(Cl)c2)cc1Cl)[C@@](O)(c1ccc2c(c1)N(C)C(=O)CO2)C(F)(F)F (racemic) [Example 59, 2-Chloro-4-{3-chloro-4-[3,3,3-trifluoro-2-hydroxy-1-methyl-2-(4-methyl-3-oxo-3,4-dihydro-2H-benzo[1,4]oxazin-6-yl)-propyl]-phenoxy}-benzoic acid]",1
5,"C[C@H](c1ccc(Oc2ccc(C(=O)O)cc2)cc1Cl)[C@@](O)(c1ccc2c(c1)N(C)C(=O)CO2)C(F)(F)F (racemic) [Example 60, 4-{3-Chloro-4-[3,3,3-trifluoro-2-hydroxy-1-methyl-2-(4-methyl-3-oxo-3,4-dihydro-2H-benzo[1,4]oxazin-6-yl)-propyl]-phenoxy}-benzoic acid]",2.3
6,"C[C@H](c1ccc(Oc2cccc(C(=O)O)c2)cc1Cl)[C@@](O)(c1ccc2c(c1)N(C)C(=O)CO2)C(F)(F)F (racemic) [Example 61, 3-{3-Chloro-4-[3,3,3-trifluoro-2-hydroxy-1-methyl-2-(4-methyl-3-oxo-3,4-dihydro-2H-benzo[1,4]oxazin-6-yl)-propyl]-phenoxy}-benzoic acid]",1
7,"C[C@H](c1ccc(Oc2ccc(C(=O)O)c(Cl)n2)cc1Cl)[C@@](O)(c1ccc2c(c1)N(C)C(=O)CO2)C(F)(F)F (racemic) [Example 63, 2-Chloro-6-{3-chloro-4-[3,3,3-trifluoro-2-hydroxy-1-methyl-2-(4-methyl-3-oxo-3,4-dihydro-2H-benzo[1,4]oxazin-6-yl)-propyl]-phenoxy}-nicotinic acid]",0.8
8,"CCN1C(=O)COc2ccc([C@](O)([C@H](C)c3ccc(-c4ccc(C(=O)O)c(Cl)c4)cc3Cl)C(F)(F)F)cc21 (racemic) [Example 64, 3,3′-Dichloro-4′-[2-(4-ethyl-3-oxo-3,4-dihydro-2H-benzo[1,4]oxazin-6-yl)-3,3,3-trifluoro-2-hydroxy-1-methyl-propyl]-biphenyl-4-carboxylic acid]",97.9
9,"C[C@H](c1ccc(-c2ccc(C(=O)O)c(F)c2)cc1Cl)[C@@](O)(c1ccc2oc(=O)n(C)c2c1)C(F)(F)F (racemic) [Example 118, 3′-Chloro-3-fluoro-4′-[3,3,3-trifluoro-2-hydroxy-1-methyl-2-(3-methyl-2-oxo-2,3-dihydro-benzooxazol-5-yl)-propyl]-biphenyl-4-carboxylic acid]",1
10,"CCOC(=O)C(C)(C)Oc1ccc([C@@H](C)[C@@](O)(c2ccc3c(c2)N(C)C(=O)CO3)C(F)(F)F)c(Cl)c1 (racemic) [Example 206, 2-{3-Chloro-4-[3,3,3-trifluoro-2-hydroxy-1-methyl-2-(4-methyl-3-oxo-3,4-dihydro-2H-benzo[1,4]oxazin-6-yl)-propyl]-phenoxy}-2-methyl-propionic acid ethyl ester]",6.2
11,"COC(=O)c1cnc(Oc2ccc([C@@H](C)[C@@](O)(c3ccc4c(c3)N(C)C(=O)CO4)C(F)(F)F)c(Cl)c2)cc1Cl (racemic) [Example 210, 4-Chloro-6-{3-chloro-4-[3,3,3-trifluoro-2-hydroxy-1-methyl-2-(4-methyl-3-oxo-3,4-dihydro-2H-benzo[1,4]oxazin-6-yl)-propyl]-phenoxy}-nicotinic acid methyl ester]",1.5
12,"COC(=O)c1cnc(Oc2ccc([C@@H](C)[C@@](O)(c3ccc4c(c3)N(C)C(=O)CO4)C(F)(F)F)c(Cl)c2)c(Cl)c1 (racemic) [Example 212, 5-Chloro-6-{3-chloro-4-[3,3,3-trifluoro-2-hydroxy-1-methyl-2-(4-methyl-3-oxo-3,4-dihydro-2H-benzo[1,4]oxazin-6-yl)-propyl]-phenoxy}-nicotinic acid methyl ester]",1
13,"C[C@H](c1ccc(Oc2ncc(C(=O)O)cc2Cl)cc1Cl)[C@@](O)(c1ccc2c(c1)N(C)C(=O)CO2)C(F)(F)F (racemic) [Example 213, 5-Chloro-6-{3-chloro-4-[3,3,3-trifluoro-2-hydroxy-1-methyl-2-(4-methyl-3-oxo-3,4-dihydro-2H-benzo[1,4]oxazin-6-yl)-propyl]-phenoxy}-nicotinic acid]",1.7
14,"CCOC(=O)c1ccc(Oc2ccc([C@@H](C)[C@@](O)(c3ccc4c(c3)N(C)C(=O)CO4)C(F)(F)F)c(Cl)c2)nc1C(F)(F)F (racemic) [Example 214, 6-{3-Chloro-4-[3,3,3-trifluoro-2-hydroxy-1-methyl-2-(4-methyl-3-oxo-3,4-dihydro-2H-benzo[1,4]oxazin-6-yl)-propyl]-phenoxy}-2-trifluoromethyl-nicotinic acid ethyl ester]",4.1
15,"C[C@H](c1ccc(Oc2ccc(C(=O)O)c(C(F)(F)F)c2)cc1Cl)[C@@](O)(c1ccc2c(c1)N(C)C(=O)CO2)C(F)(F)F (racemic) [Example 220, 4-{3-Chloro-4-[3,3,3-trifluoro-2-hydroxy-1-methyl-2-(4-methyl-3-oxo-3,4-dihydro-2H-benzo[1,4]oxazin-6-yl)-propyl]-phenoxy}-2-trifluoromethyl-benzoic acid]",1.1
16,"COC(=O)c1cnc(Oc2ccc([C@@H](C)[C@@](O)(c3ccc4c(c3)N(C)C(=O)CO4)C(F)(F)F)c(Cl)c2)nc1C(F)(F)F (racemic) [Example 225, 2-{3-Chloro-4-[3,3,3-trifluoro-2-hydroxy-1-methyl-2-(4-methyl-3-oxo-3,4-dihydro-2H-benzo[1,4]oxazin-6-yl)-propyl]-phenoxy}-4-trifluoromethyl-pyrimidine-5-carboxylic acid methyl ester]",7.8
17,"COC(=O)c1cnc(Oc2ccc([C@@H](C)[C@@](O)(c3ccc4c(c3)N(C)C(=O)CO4)C(F)(F)F)c(Cl)c2)nc1 (racemic) [Example 226, 2-{3-Chloro-4-[3,3,3-trifluoro-2-hydroxy-1-methyl-2-(4-methyl-3-oxo-3,4-dihydro-2H-benzo[1,4]oxazin-6-yl)-propyl]-phenoxy}-pyrimidine-5-carboxylic acid methyl ester]",5.9
18,"COC(=O)c1cnc(Oc2ccc([C@@H](C)[C@@](O)(c3ccc4c(c3)N(C)C(=O)CO4)C(F)(F)F)c(Cl)c2)cn1 (racemic) [Example 227, 5-{3-Chloro-4-[3,3,3-trifluoro-2-hydroxy-1-methyl-2-(4-methyl-3-oxo-3,4-dihydro-2H-benzo[1,4]oxazin-6-yl)-propyl]-phenoxy}-pyrazine-2-carboxylic acid methyl ester]",3
